Data taken from US20200270225A1, “Chiral Diacylhydrazine Ligands for Modulating the Expression of Exogenous Genes via an Ecdysone Receptor Complex” (Intrexon Corporation, priority 2007, published 2020).
Like-named read-outs stand apart in the source and are kept apart here.

Legend:
[1] = target: wild-type Choristoneura fumiferana EcR (D, E and F domains) (Choristoneura fumiferana, UniProt O77240); format: cell-based; details: WT-CtEcR, 3T3 Cells; for RMFI (relative maximum fold induction): relative to GS-E ligand
In short: (§1)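 NIH3T3 cells were transiently co-transfected with GAL4-DBD fused to CfEcR DEF domains (wild-type or V390I/Y410E/E274V), VP16-AD fused to chimeric human/Locusta RXR, and a GAL4-response luciferase reporter. Ligand was given at 8 doses, 0.01–33 µM, 0.33% DMSO, luciferase read at 48 h. EC50 came from fold induction over DMSO via three-parameter logistic fit; Relative Max FI was taken versus GS™-E ligand.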

[2] = target: T1, [V390I/Y410E/E274V]-CfEcR (Choristoneura fumiferana, UniProt O77240); format: cell-based; details: 3T3 Cells; for RMFI (relative maximum fold induction): relative to GS-E ligand
T1 construct: assay construct b835
In short: as §1

In the case of CCC[C@@H](N(NC(=O)c1c(F)cccc1F)C(=O)c1cc(C)cc(C)c1)C(C)(C)C [Example 15, (R)-3,5-Dimethyl-benzoic acid N-(1-tert-butyl-butyl)-N′-(2,6-difluoro-benzoyl)-hydrazide], the EC50 ([1]; R) is reported as 66.2 nM, the “RMFI (relative maximum fold induction)” value ([1]; R) is reported as 0.82 and the EC50 ([2]; R) is reported as 0.54 nM. For the same molecule, the “RMFI (relative maximum fold induction)” value ([2]; R) was 0.79 and the melting point was 180 to 182 °C.

In the case of CCC[C@@H](N(NC(=O)c1cccc(OC)c1)C(=O)c1cc(C)cc(C)c1)C(C)(C)C [Example 9, (R)-3,5-Dimethyl-benzoic acid N-(1-tert-butyl-butyl)-N′-(3-methoxy-benzoyl)-hydrazide], the EC50 ([1]; R) is reported as 101 nM, the “RMFI (relative maximum fold induction)” value ([1]; R) is reported as 0.81 and the EC50 ([2]; R) is reported as 1.4 nM. The “RMFI (relative maximum fold induction)” value ([2]; R) was 0.70 and the melting point was 110 to 111 °C.

In the case of C=CC[C@H](N(NC(=O)OCc1ccccc1)C(=O)c1cc(C)cc(C)c1)C(C)(C)C [Example 31.4, (S)—N′-(1-tert-butyl-but-3-enyl)-N′-(3,5-dimethyl-benzoyl)-hydrazine carboxylic acid benzyl ester], the EC50 ([1]; S) is reported as > 10000 nM, the EC50 ([2]; S) is reported as > 10000 nM and the melting point is reported as 150 to 151.5 °C.

With CCC[C@@H](N(NC(=O)c1ccc(CC)cc1)C(=O)c1cc(C)cc(C)c1)C(C)(C)C [Example 12, (R)-3,5-Dimethyl-benzoic acid N-(1-tert-butyl-butyl)-N′-(4-ethyl-benzoyl)-hydrazide] the EC50 ([1]; R) was 23.6 nM, the “RMFI (relative maximum fold induction)” value ([1]; R) was 0.78 and the EC50 ([2]; R) was 0.56 nM. For the same molecule, the “RMFI (relative maximum fold induction)” value ([2]; R) was 0.82 and the melting point was 111 to 112 °C.

For CCC[C@@H](N(NC(=O)c1ccccc1Cl)C(=O)c1cc(C)cc(C)c1)C(C)(C)C [Example 6, (R)-3,5-Dimethyl-benzoic acid N-(1-tert-butyl-butyl)-N′-(2-chloro-benzoyl)-hydrazide], the EC50 ([1]; R) was ~20 nM, the “RMFI (relative maximum fold induction)” value ([1]; R) was 0.88 and the EC50 ([2]; R) was 0.63 nM. The “RMFI (relative maximum fold induction)” value ([2]; R) was 1.01 and the melting point was 138 to 140 °C.

For CCC[C@@H](N(NC(=O)c1cccc2ccccc12)C(=O)c1cc(C)cc(C)c1)C(C)(C)C [Example 23, (R)-3,5-Dimethyl-benzoic acid N-(1-tert-butyl-butyl)-N′-(naphthalene-1-carbonyl)-hydrazide], the EC50 ([1]; R) was 111 nM, the “RMFI (relative maximum fold induction)” value ([1]; R) was 0.69 and the EC50 ([2]; R) was ~10 nM. The “RMFI (relative maximum fold induction)” value ([2]; R) was 0.73 and the melting point was 173 to 174 °C.

In the case of CCC[C@@H](N(NC(=O)c1ccccc1C)C(=O)c1cc(C)cc(C)c1)C(C)(C)C [Example 3, (R)-3,5-Dimethyl-benzoic acid N-(1-tert-butyl-butyl)-N′-(2-methyl-benzoyl)-hydrazide], the EC50 ([1]; R) is reported as 90 nM, the “RMFI (relative maximum fold induction)” value ([1]; R) is reported as 0.75 and the EC50 ([2]; R) is reported as 1.1 nM. For the same molecule, the “RMFI (relative maximum fold induction)” value ([2]; R) was 0.69 and the melting point was 137 to 138 °C.

In the case of CCC[C@@H](N(NC(=O)c1ccccc1)C(=O)c1cc(C)cc(C)c1)C(C)(C)C [Example 2, (R)-3,5-Dimethyl-benzoic acid N′-benzoyl-N-(1-tert-butyl-butyl)-hydrazide], the EC50 ([1]; R) is reported as ~30 nM, the “RMFI (relative maximum fold induction)” value ([1]; R) is reported as 0.74 and the EC50 ([2]; R) is reported as 2.2 nM. The “RMFI (relative maximum fold induction)” value ([2]; R) was 0.91 and the melting point was 66 to 68 °C.

With CCC[C@@H](N(NC(=O)c1c(Cl)cccc1Cl)C(=O)c1cc(C)cc(C)c1)C(C)(C)C [Example 16] the EC50 ([1]; R) was ~300 nM, the “RMFI (relative maximum fold induction)” value ([1]; R) was 0.53 and the EC50 ([2]; R) was 51.2 nM. For the same molecule, the “RMFI (relative maximum fold induction)” value ([2]; R) was 0.83 and the melting point was 185 to 187 °C.

In the case of CCC[C@@H](N(NC(=O)c1cc(F)cc(F)c1)C(=O)c1cc(C)cc(C)c1)C(C)(C)C [Example 18, (R)-3,5-Dimethyl-benzoic acid N-(1-tert-butyl-butyl)-N′-(3,5-difluoro-benzoyl)-hydrazide], the EC50 ([1]; R) is reported as 141 nM, the “RMFI (relative maximum fold induction)” value ([1]; R) is reported as 0.52 and the EC50 ([2]; R) is reported as ~10 nM. The “RMFI (relative maximum fold induction)” value ([2]; R) was 0.79 and the melting point was 192 to 194 °C.

With CCC[C@@H](N(NC(=O)c1ccc2ccccc2c1)C(=O)c1cc(C)cc(C)c1)C(C)(C)C [Example 24, (R)-3,5-Dimethyl-benzoic acid N-(1-tert-butyl-butyl)-N′-(naphthalene-2-carbonyl)-hydrazide] the EC50 ([1]; R) was ~200 nM, the “RMFI (relative maximum fold induction)” value ([1]; R) was 0.46 and the EC50 ([2]; R) was ~20 nM. The “RMFI (relative maximum fold induction)” value ([2]; R) was 0.80 and the melting point was 91 °C.

In the case of CCC[C@@H](N(NC(=O)c1ccc2c(c1CC)OCCO2)C(=O)c1cc(C)cc(C)c1)C(C)(C)C [Example 22, (R)-3,5-Dimethyl-benzoic acid N-(1-tert-butyl-butyl)-N′-(5-ethyl 2,3-dihydro-benzo[1,4]dioxine-6-carbonyl)-hydrazide], the EC50 ([1]; R) is reported as 0.266 nM, the “RMFI (relative maximum fold induction)” value ([1]; R) is reported as 0.78 and the EC50 ([2]; R) is reported as 0.064 nM. The “RMFI (relative maximum fold induction)” value ([2]; R) was 0.77 and the melting point was 128 to 129 °C.

With CCC[C@@H](N(NC(=O)c1ccc2c(c1C)OCCO2)C(=O)c1cc(C)cc(C)c1)C(C)(C)C [Example 21, (R)-3,5-Dimethyl-benzoic acid N-(1-tert-butyl-butyl)-N′-(5-methyl-2,3-dihydro-benzo[1,4]dioxine-6-carbonyl)-hydrazide] the EC50 ([1]; R) was 0.304 nM, the “RMFI (relative maximum fold induction)” value ([1]; R) was 0.87 and the EC50 ([2]; R) was ~0.04 nM. For the same molecule, the “RMFI (relative maximum fold induction)” value ([2]; R) was 1.14 and the melting point was 70 °C.

With CCC[C@@H](N(NC(=O)c1cccc(OC)c1C)C(=O)c1cc(C)cc(C)c1)C(C)(C)C [Example 29, (R)-3,5-Dimethyl-benzoic acid N-(1-tert-butyl-butyl)-N′-(3-methoxy-2-methyl-benzoyl)-hydrazide] the EC50 ([1]; R) was ~1 nM, the “RMFI (relative maximum fold induction)” value ([1]; R) was 1.08 and the EC50 ([2]; R) was 0.078 nM. The “RMFI (relative maximum fold induction)” value ([2]; R) was 1.05 and the melting point was 141 to 143 °C.

In the case of CCC[C@@H](N(NC(=O)c1ccccc1Br)C(=O)c1cc(C)cc(C)c1)C(C)(C)C [Example 7, (R)-3,5-Dimethyl-benzoic acid N′-(2-bromo-benzoyl)-N-(1-tert-butyl-butyl)-hydrazide], the EC50 ([1]; R) is reported as 78.7 nM, the “RMFI (relative maximum fold induction)” value ([1]; R) is reported as 0.58 and the EC50 ([2]; R) is reported as 1.4 nM. For the same molecule, the “RMFI (relative maximum fold induction)” value ([2]; R) was 0.90 and the melting point was 145 to 147 °C.

With CCC[C@@H](N(NC(=O)c1ccc(OC)cc1)C(=O)c1cc(C)cc(C)c1)C(C)(C)C [Example 13, (R)-3,5-Dimethyl-benzoic acid N-(1-tert-butyl-butyl)-N′-(4-methoxy-benzoyl)-hydrazide] the EC50 ([1]; R) was 42.3 nM, the “RMFI (relative maximum fold induction)” value ([1]; R) was 0.73 and the EC50 ([2]; R) was 1.4 nM. The “RMFI (relative maximum fold induction)” value ([2]; R) was 0.68 and the melting point was 65 to 67 °C.
